The values below come from ChEMBL document CHEMBL1154506, “Discovery and development of the anticancer agent salinosporamide A (NPI-0052)” (Bioorg Med Chem, 2009).

Test [1] is described as follows: Cytotoxicity against human NCI60 cells. Type of test: functional.
The test system of test [2] is HCT-116. The test can be described thus: Cytotoxicity against human HCT116 cells. Type of test: functional, cell-based.

A value given as a limit tells only on which side of the number the result lay.

As for `C[C@@]12OC(=O)[C@]1([C@@H](O)[C@@H]1C=CCCC1)NC(=O)[C@@H]2CCCl` [MARIZOMIB], the GI50 (usually the concentration that inhibits growth by half) in test [1] is less than 10 nM. The IC50 (in general, the concentration that gives 50% inhibition) in test [2] is no more than 2 ng/mL.
